For 17 compounds, Ki results are on record in patent publication US7129238B2, “Mandelic acid derivatives” (Hoffmann-La Roche Inc., priority 2002, dated 2006).

Structures can show the parent of a compound that is named as a salt.

The test deals with T1, factor VIIa/tissue factor complex (Homo sapiens, UniProt P08709).
T1 construct: 9 nM of soluble factor VIIa
The experiment in a line: inhibition of the amidolytic activity of factor VIIa/tissue factor complex (chromogenic peptide substrate). The format is biochemical. The note with it: soluble factor VIIa, substrate Chromozym-tPA, pH 7.5, room temperature. On the procedure:
The measurements were carried out by an automated robotic assay on microtitre plates at room temperature. To this end, 100 μL of a solution of 26 nM of tissue factor, 9 nM of soluble factor VIIa and 8 mM of calcium chloride were added to 25 μL of a solution of the inhibitor in a buffer [pH 7.5, 100 mM, comprising 0.14M NaCl, 0.1M N-(2-hydroxyethyl)piperazine-N′-(2-ethanesulphonic acid) (HEPES), 0.5 mg/l of fatty-acid-free BSA (bovine serum albumin) and 0.05% NaN3] in each well of the plate. After an incubation time of 15 minutes the reaction was started by the addition of 50 μl of chromogenic substrate Chromozym-tPA (3.5 mM, MeSO2-D-Phe-Gly-Arg-paranitroanilide) and the hydrolysis of the substrate was followed spectrophotometrically on a kinetic microtitre plate reader over 10 minutes. Using the plot of the inhibition curves, the Ki values were determined according to the method described in Biochem. J. 55, 1953, 170–171.

T1 sequence (P08709 213-466 limits assumed): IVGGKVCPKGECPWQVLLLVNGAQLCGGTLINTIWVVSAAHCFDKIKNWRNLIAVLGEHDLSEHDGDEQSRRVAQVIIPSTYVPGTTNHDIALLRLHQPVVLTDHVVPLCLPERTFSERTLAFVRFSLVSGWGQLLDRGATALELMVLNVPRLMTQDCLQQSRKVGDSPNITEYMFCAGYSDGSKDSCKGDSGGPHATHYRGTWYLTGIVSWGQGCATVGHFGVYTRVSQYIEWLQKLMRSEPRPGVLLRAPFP
T1 sequence (P08709 61-212 limits assumed): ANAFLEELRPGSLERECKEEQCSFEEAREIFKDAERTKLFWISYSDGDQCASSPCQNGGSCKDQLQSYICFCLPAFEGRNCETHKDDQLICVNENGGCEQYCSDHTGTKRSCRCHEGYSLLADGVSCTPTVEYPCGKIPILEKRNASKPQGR
T1 sequence (P13726 33-295 partner): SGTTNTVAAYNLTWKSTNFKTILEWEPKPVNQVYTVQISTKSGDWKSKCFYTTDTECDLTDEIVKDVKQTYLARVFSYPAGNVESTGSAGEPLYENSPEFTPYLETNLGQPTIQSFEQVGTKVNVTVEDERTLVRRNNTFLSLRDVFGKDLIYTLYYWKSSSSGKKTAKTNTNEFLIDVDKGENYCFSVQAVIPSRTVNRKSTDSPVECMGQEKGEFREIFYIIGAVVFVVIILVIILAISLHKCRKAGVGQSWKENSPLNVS

Usually Ki stands for a measure of affinity in units of concentration, obtained from inhibition or displacement. `CCOC(C(=O)NCc1ccc(C(=N)N)cc1OCC(=O)NCCOC)c1c(F)cc(OC)cc1F` (racemic) [Example 129, (RS)-N-{4-Carbamimidoyl-2-[(2-methoxy-ethylcarbamoyl)-methoxy]-benzyl}-2-(2,6-difluoro-4-methoxy-phenyl)-2-ethoxy-acetamide hydrochloride] returned a Ki of 21 nM. This counts as double-digit nanomolar.

`CCOC(C(=O)NCc1ccc(C(=N)N)cc1OCC(N)=O)c1c(F)cc(OC)cc1F` (racemic) [Example 126.3, (RS)-N-(4-carbamimidoyl-2-carbamoylmethoxy-benzyl)-2-(2,6-difluoro-4-methoxy-phenyl)-2-ethoxy-acetamide hydrochloride] registered an inhibition constant Ki of 20 nM. The result for “(RS)-(4-carbamimidoyl-2-carbamoylmethoxy-benzyl)-2-[2,6-difluoro-4-(pyridin-2-ylmethoxy)-phenyl]-2-ethoxy-acetamide hydrochloride [Example 335.5]” reads 17 nM; that for `CCOC(C(=O)NCc1ccc(C(=N)N)cc1)c1c(F)cc(-c2ccc(N)cn2)cc1F` (racemic) [Example 269, (RS)-2-[4-(5-Amino-pyridin-2-yl)-2,6-difluoro-phenyl]-N-(4-carbamimidoyl-benzyl)-2-ethoxy-acetamide hydrochloride], 320 nM; that for `COc1cc(F)c(C(OC)C(=O)NCc2ccc(C(=N)N)cc2)cc1OC` (racemic) [Example 24.3, (RS)-N-(4-carbamimidoyl-benzyl)-2-(2-fluoro-4,5-dimethoxy-phenyl)-2-methoxy-acetamide hydrochloride], 2210 nM. The value for `CCOC(C(=O)NCc1ccc(C(=N)N)cc1NCc1ccccc1)c1ccc(OC)cc1F` (racemic) [Example 323, (RS)-N-(2-Benzylamino-4-carbamimidoyl-benzyl)-2-ethoxy-2-(2-fluoro-4-methoxy-phenyl)-acetamide acetate] was 65 nM; that for `COc1ccc2cc(C(OC)C(=O)NCc3ccc(C(=N)N)cc3)ccc2c1` (racemic) [Example 53.3, (RS)-N-(4-carbamimidoyl-benzyl)-2-methoxy-2-(6-methoxy-naphthalen-2-yl)-acetamide hydrochloride] was 2260 nM; that for `CCOC(C(=O)NCc1ccc(C(=N)N)cc1)c1c(F)cc(OCc2ccccn2)cc1F` (racemic) [Example 294.2, (RS)-N-(4-carbamimidoyl-benzyl)-2-[2,6-difluoro-4-(pyridin-2-ylmethoxy)-phenyl]-2-ethoxy-acetamide hydrochloride] was 586 nM.

For the compound `CCOC(C(=O)NCc1ccc(C(=N)N)cc1NCC(=O)O)c1ccc(OC)cc1F` (racemic) [Example 329, (RS)-(5-carbamimidoyl-2-j [2-ethoxy-2-(2-fluoro-4-methoxy-phenyl)-acetylamino]-methyl)-phenylamino)-acetic acid acetate], affinity was put at a Ki of 121 nM. `CCOC(C(=O)NCc1c(F)cc(C(=N)N)cc1F)c1c(F)cc(-c2ccc(N)nc2)cc1F` (racemic) [Example 336.2, (RS)-2-[4-(6-amino-pyridin-3-yl)-2,6-difluoro-phenyl]-N-(4-carbamimidoyl-2,6-difluoro-benzyl)-2-ethoxy-acetamide acetate] came in with an inhibition constant Ki of 598 nM. The result for `CCOC(C(=O)NCc1ccc(C(=N)N)cc1)c1c(F)cc(-c2cnc(N)nc2)cc1F` (racemic) [Example 266, (RS)-2-[4-(2-Amino-pyrimidin-5-yl)-2,6-difluoro-phenyl]-N-(4-carbamimidoyl-benzyl)-2-ethoxy-acetamide hydrochloride] reads 242 nM; that for `COC(C(=O)NCc1ccc(C(=N)N)cc1)c1ccc(OCCc2ccc(F)cc2)cc1F` (racemic) [Example 72.2, (RS)-N-(4-carbamimidoyl-benzyl)-2-{2-fluoro-4-[2-(4-fluoro-phenyl)-ethoxy]-phenyl}-2-methoxy-acetamide hydrochloride], 2100 nM; that for `COc1cc(F)c(C(OC)C(=O)NCc2ccc(C(=N)N)cc2OCc2ccccn2)c(F)c1` (racemic) [Example 141, (RS)-N-[4-carbamimidoyl-2-(pyridin-2-ylmethoxy)-benzyl]-2-(2,6-difluoro-4-methoxy-phenyl)-2-methoxy-acetamide hydrochloride], 44 nM. The result for “(RS)-{4-Carbamimidoyl-2-[(pyridin-2-ylmethyl)-amino]-benzyl}-2-ethoxy-2-(2-fluoro-4-methoxy-phenyl)-acetamide hydrochloride [Example 325]” reads 77 nM. `CCOC(C(=O)NCc1ccc(C(=N)N)cc1)c1c(F)cc(-c2cccnc2)cc1F` (racemic) [Example 267, (RS)-N-(4-Carbamimidoyl-benzyl)-2-(2,6-difluoro-4-pyridin-3-yl-phenyl)-2-ethoxy-acetamide hydrochloridr] yielded a Ki of 371 nM. The value for `CCOC(C(=O)NCc1ccc(C(=N)N)cc1)c1c(F)cc(-c2ccc(N)nc2)cc1F` (racemic) [Example 271, (RS)-(2-[4-(6-Amino-pyridin-3-yl)-2,6-difluoro-phenyl]-N-(4-carbamimidoyl-benzyl)-2-ethoxy-acetamide hydrochloride] was 154 nM.

Consider `CCOc1ccc(C(OC)C(=O)NCc2ccc(C(=N)N)cc2)c(F)c1OCC` (racemic) [Example 33.3, (RS)-N-(4-carbamimidoyl-benzyl)-2-(3,4-diethoxy-2-fluoro-phenyl)-2-methoxy-acetamide hydrochloride], for which the Ki amounted to 490 nM. This Ki lies about 3.2-fold higher than the previous one.
